Test results taken from patent publication US20080039422A1, “Vitamin B12-Containing Compositions and Methods of Use” (Transition Therapeutics Inc., priority 2004, published 2008).

Assays:
[1] = Methylcobalamin-containing solutions; type: physicochemical
[2] = Methylcobalamin-containing solutions; type: physicochemical; remark: listed apart in the source
Procedure: A variety of solutions containing methylcobalamin (Me-Cbl) were tested. In one series of experiments, solutions containing ethanol, propylene glycol, or both ethanol and propylene glycol were challenged with 20 mg/ml Me-Cbl. In another series of experiments, the same solutions were challenged with 50 mg/ml Me-Cbl. The conditions were the same as those described for CN-Cbl. In both series, the excipients included: (a) 15% ethanol; (b) 20% ethanol; (c) 20% propylene glycol; (d) 40% propylene glycol; (e) 15% ethanol and 20% propylene glycol; and (f) 20% ethanol and 40% propylene glycol. Following suitable dilution, the absorbance at A340 was measured on Day 0, Day 1, and Day 2 (Table 7).

SMILES: C/C1=C2/[N-][C@H]([C@H](CC(N)=O)[C@@]2(C)CCC(=O)NC[C@H](C)OP(=O)([O-])O[C@H]2[C@@H](O)[C@@H](n3cnc4cc(C)c(C)cc43)O[C@@H]2CO)[C@]2(C)N=C(/C(C)=C3N=C(/C=C4N=C1[C@@H](CCC(N)=O)C\4(C)C)[C@@H](CCC(N)=O)[C@]\3(C)CC(N)=O)[C@@H](CCC(N)=O)[C@]2(C)CC(N)=O.[CH3-].[Co+3] [Me-Cbl, methylcobalamin]
- Conc of Me-Cbl ([1]; challenge 20 mg/mL, ethanol 0%, PG 0%, Day 0): 17180 µg/mL
- Conc of Me-Cbl ([1]; challenge 20 mg/mL, ethanol 0%, PG 0%, Day 0 reading): 12780 µM
- Conc of Me-Cbl ([1]; challenge 20 mg/mL, ethanol 0%, PG 0%, Day 1): 14030 µg/mL
- Conc of Me-Cbl ([1]; challenge 20 mg/mL, ethanol 0%, PG 0%, Day 3): 13180 µg/mL
- Conc of Me-Cbl ([1]; challenge 20 mg/mL, ethanol 0%, PG 20%, Day 3): 23370 µg/mL
- Conc of Me-Cbl ([1]; challenge 20 mg/mL, ethanol 0%, PG 40%, Day 0): 23940 µg/mL
- Conc of Me-Cbl ([1]; challenge 20 mg/mL, ethanol 0%, PG 40%, Day 1): 24340 µg/mL
- Conc of Me-Cbl ([1]; challenge 20 mg/mL, ethanol 0%, PG 40%, Day 3): 24500 µg/mL
- Conc of Me-Cbl ([1]; challenge 20 mg/mL, ethanol 15%, PG 0%, Day 0): 22800 µg/mL
- Conc of Me-Cbl ([1]; challenge 20 mg/mL, ethanol 15%, PG 0%, Day 0 reading): 16960 µM
- Conc of Me-Cbl ([1]; challenge 20 mg/mL, ethanol 15%, PG 0%, Day 1): 12530 µg/mL
- Conc of Me-Cbl ([1]; challenge 20 mg/mL, ethanol 15%, PG 0%, Day 3): 11120 µg/mL
- Conc of Me-Cbl ([1]; challenge 20 mg/mL, ethanol 15%, PG 20%, Day 0): 22720 µg/mL
- Conc of Me-Cbl ([1]; challenge 20 mg/mL, ethanol 15%, PG 20%, Day 0 reading): 16900 µM
- Conc of Me-Cbl ([1]; challenge 20 mg/mL, ethanol 15%, PG 20%, Day 1): 23450 µg/mL
- Conc of Me-Cbl ([1]; challenge 20 mg/mL, ethanol 15%, PG 20%, Day 3): 21910 µg/mL
- Conc of Me-Cbl ([1]; challenge 20 mg/mL, ethanol 20%, PG 0%, Day 0): 23130 µg/mL
- Conc of Me-Cbl ([1]; challenge 20 mg/mL, ethanol 20%, PG 0%, Day 0 reading): 17200 µM
- Conc of Me-Cbl ([1]; challenge 20 mg/mL, ethanol 20%, PG 0%, Day 1): 9180 µg/mL
- Conc of Me-Cbl ([1]; challenge 20 mg/mL, ethanol 20%, PG 0%, Day 3): 9180 µg/mL
- Conc of Me-Cbl ([1]; challenge 20 mg/mL, ethanol 20%, PG 40%, Day 0 reading): 16960 µM
- Conc of Me-Cbl ([1]; challenge 20 mg/mL, ethanol 20%, PG 40%, Day 1): 23860 µg/mL
- Conc of Me-Cbl ([1]; challenge 20 mg/mL, ethanol 20%, PG 40%, Day 3): 24100 µg/mL
- Conc of Me-Cbl ([1]; challenge 50 mg/mL, ethanol 0%, PG 0%, Day 0): 12660 µg/mL
- Conc of Me-Cbl ([1]; challenge 50 mg/mL, ethanol 0%, PG 0%, Day 0 reading): 9410 µM
- Conc of Me-Cbl ([1]; challenge 50 mg/mL, ethanol 0%, PG 0%, Day 1): 12860 µg/mL
- Conc of Me-Cbl ([1]; challenge 50 mg/mL, ethanol 0%, PG 0%, Day 3): 12860 µg/mL
- Conc of Me-Cbl ([1]; challenge 50 mg/mL, ethanol 0%, PG 20%, Day 0): 58220 µg/mL
- Conc of Me-Cbl ([1]; challenge 50 mg/mL, ethanol 0%, PG 20%, Day 0 reading): 43310 µM
- Conc of Me-Cbl ([1]; challenge 50 mg/mL, ethanol 0%, PG 20%, Day 1): 17990 µg/mL
- Conc of Me-Cbl ([1]; challenge 50 mg/mL, ethanol 0%, PG 20%, Day 3): 17790 µg/mL
- Conc of Me-Cbl ([1]; challenge 50 mg/mL, ethanol 0%, PG 40%, Day 0): 57210 µg/mL
- Conc of Me-Cbl ([1]; challenge 50 mg/mL, ethanol 0%, PG 40%, Day 0 reading): 42560 µM
- Conc of Me-Cbl ([1]; challenge 50 mg/mL, ethanol 0%, PG 40%, Day 1): 23210 µg/mL
- Conc of Me-Cbl ([1]; challenge 50 mg/mL, ethanol 0%, PG 40%, Day 3): 22160 µg/mL
- Conc of Me-Cbl ([1]; challenge 50 mg/mL, ethanol 15%, PG 0%, Day 0): 56610 µg/mL
- Conc of Me-Cbl ([1]; challenge 50 mg/mL, ethanol 15%, PG 0%, Day 0 reading): 42110 µM
- Conc of Me-Cbl ([1]; challenge 50 mg/mL, ethanol 15%, PG 0%, Day 1): 11930 µg/mL
- Conc of Me-Cbl ([1]; challenge 50 mg/mL, ethanol 15%, PG 0%, Day 3): 11320 µg/mL
- Conc of Me-Cbl ([1]; challenge 50 mg/mL, ethanol 15%, PG 20%, Day 0): 56610 µg/mL
- Conc of Me-Cbl ([1]; challenge 50 mg/mL, ethanol 15%, PG 20%, Day 0 reading): 42110 µM
- Conc of Me-Cbl ([1]; challenge 50 mg/mL, ethanol 15%, PG 20%, Day 1): 15490 µg/mL
- Conc of Me-Cbl ([1]; challenge 50 mg/mL, ethanol 15%, PG 20%, Day 3): 15450 µg/mL
- Conc of Me-Cbl ([1]; challenge 50 mg/mL, ethanol 20%, PG 0%, Day 0): 58020 µg/mL
- Conc of Me-Cbl ([1]; challenge 50 mg/mL, ethanol 20%, PG 0%, Day 0 reading): 43160 µM
- Conc of Me-Cbl ([1]; challenge 50 mg/mL, ethanol 20%, PG 0%, Day 3): 10350 µg/mL
- Conc of Me-Cbl ([1]; challenge 50 mg/mL, ethanol 20%, PG 40%, Day 1): 51150 µg/mL
- Conc of Me-Cbl ([1]; challenge 50 mg/mL, ethanol 20%, PG 40%, Day 3): 48120 µg/mL
- Conc of Me-Cbl ([2]; challenge 20 mg/mL, ethanol 0%, PG 20%, Day 0): 23610 µg/mL
- Conc of Me-Cbl ([2]; challenge 20 mg/mL, ethanol 0%, PG 20%, Day 0 reading): 17560 µM
- Conc of Me-Cbl ([2]; challenge 20 mg/mL, ethanol 0%, PG 20%, Day 1): 24020 µg/mL
- Conc of Me-Cbl ([2]; challenge 20 mg/mL, ethanol 0%, PG 40%, Day 0 reading): 17800 µM
- Conc of Me-Cbl ([2]; challenge 20 mg/mL, ethanol 20%, PG 40%, Day 0): 22800 µg/mL
- Conc of Me-Cbl ([2]; challenge 50 mg/mL, ethanol 20%, PG 0%, Day 1): 10470 µg/mL
- Conc of Me-Cbl ([2]; challenge 50 mg/mL, ethanol 20%, PG 40%, Day 0): 57620 µg/mL
- Conc of Me-Cbl ([2]; challenge 50 mg/mL, ethanol 20%, PG 40%, Day 0 reading): 42860 µM
